Assay results from patent publication US11684606B2, “Methods of treating generalized pustular psoriasis with an antagonist of CCR6 or CXCR2” (CHEMOCENTRYX, INC., priority 2018, dated 2023).
Converted amounts (≈) assume the structure as drawn. “Also recorded” adds a separate entry of the source.

Experiments:
mCXCR2 = target: T1, mCXCR2 (Mus musculus, UniProt P35343); assay: In vitro inhibition of chemotaxis, mouse bone marrow cells to mCXCL1; format: cell-based; settings: in 100% serum
T1 construct: endogenous in cells; host or cells: mouse bone marrow cells (from the earlier reading's assay name)
T1 sequence (P35343 1-359): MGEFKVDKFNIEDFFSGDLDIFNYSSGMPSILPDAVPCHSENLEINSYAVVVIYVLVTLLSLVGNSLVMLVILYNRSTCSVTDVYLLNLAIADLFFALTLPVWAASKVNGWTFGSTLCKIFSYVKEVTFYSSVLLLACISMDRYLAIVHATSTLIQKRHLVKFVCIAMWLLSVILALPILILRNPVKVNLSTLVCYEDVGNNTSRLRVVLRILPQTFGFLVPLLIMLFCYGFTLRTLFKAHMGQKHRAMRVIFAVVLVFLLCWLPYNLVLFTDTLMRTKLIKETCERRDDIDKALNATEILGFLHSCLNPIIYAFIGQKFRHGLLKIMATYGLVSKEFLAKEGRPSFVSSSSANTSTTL
Method: For in vitro determination of chemokine receptor inhibitor activity, Compound 1.136 was dissolved in DMSO to generate a stock concentration of 10 mM that was further diluted in chemotaxis migration buffer (HBSS, 1% BSA, 1% HEPES) to create a 10-point inhibitor gradient ranging from 100 nM-0.01 nM. Migration assay was then run in 100% mouse serum in response to rmCCL20 for CCR6 activity or rmCXCL1 for CXCR2 activity using ChemoTx plates (Neuroprobe, Gaithersburg Md.) and assessed by fluorescence staining of migrated cells with CyQuant (Thermo Fisher).

mCCR1 = target: T2, mCCR1 (Mus musculus, UniProt P51675); assay: Chemotaxis of mouse WEHI-274.1 cells to mCCL3; format: cell-based; settings: in serum; unit inferred
T2 construct: endogenous in cells; host or cells: mouse WEHI-274.1 cells (from the earlier reading's assay name)
T2 sequence (P51675 1-355): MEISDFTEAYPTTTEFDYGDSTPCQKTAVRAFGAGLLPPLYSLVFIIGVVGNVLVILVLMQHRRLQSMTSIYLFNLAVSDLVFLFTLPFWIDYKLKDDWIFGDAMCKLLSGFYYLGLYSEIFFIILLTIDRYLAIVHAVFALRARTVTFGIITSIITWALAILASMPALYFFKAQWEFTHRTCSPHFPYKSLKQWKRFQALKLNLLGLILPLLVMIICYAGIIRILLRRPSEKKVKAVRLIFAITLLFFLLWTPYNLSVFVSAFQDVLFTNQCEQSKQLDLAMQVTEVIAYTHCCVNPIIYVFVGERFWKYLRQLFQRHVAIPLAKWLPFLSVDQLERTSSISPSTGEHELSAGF

mCCR4 = target: T3, mCCR4 (Mus musculus, UniProt P51680); assay: Chemotaxis of mCCR4-transfected BaF3 cells to mCCL22; format: cell-based; settings: A2 value, unit not given
T3 construct: expressed in transfected cells; host or cells: BaF3 cells (from the earlier reading's assay name)
T3 sequence (P51680 1-360): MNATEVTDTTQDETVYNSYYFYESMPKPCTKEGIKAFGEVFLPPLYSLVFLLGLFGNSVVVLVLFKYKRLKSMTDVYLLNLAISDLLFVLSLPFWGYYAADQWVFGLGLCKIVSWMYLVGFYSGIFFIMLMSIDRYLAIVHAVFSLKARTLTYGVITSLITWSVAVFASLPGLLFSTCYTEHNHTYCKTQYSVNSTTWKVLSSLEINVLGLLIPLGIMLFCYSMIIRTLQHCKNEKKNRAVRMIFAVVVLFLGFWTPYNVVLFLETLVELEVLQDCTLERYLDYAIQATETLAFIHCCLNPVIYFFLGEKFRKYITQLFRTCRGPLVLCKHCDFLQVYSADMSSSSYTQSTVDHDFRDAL

[1] = tested on: IL-36α-injected ears of Balb/c mice; assay: H&E histology and epidermal thickness of IL-36α-injected ears; format: in vivo, mouse
Method: (§1) For in vivo dosing, mice were dosed subcutaneously with Compound 1.136 once daily (s.c. q.d. in 1% HPMC) at 90 mg/kg unless stated otherwise, starting at day 0 of a study. The in vivo dose was predicted based on in vitro potency and the pharmacokinetic response to a single dose in mice. The minimum antagonist concentration (at trough) to fully cover a gradient-sensing chemoattractant receptor has been determined to correspond with the IC90 concentration (Schall, T. J., and A. E. Proudfoot. 2011. Overcoming hurdles in developing successful drugs targeting chemokine receptors. Nat Rev Immunol 11: 355-363).
For hematoxylin and eosin (H&E) staining, ear tissue was initially fixed in paraformaldehyde for paraffin embedding. Samples were processed by standard procedures. Epidermal thickness was measured as the average of 7 measurements made along the center third (the area containing the lesion) of the length of the H&E stained ear sections using Photoshop CS4 software (Adobe®)

mCCR7 = target: T4, mCCR7 (Mus musculus, UniProt P47774); assay: Chemotaxis of mouse splenocytes to mCCL19; format: cell-based; settings: in serum; unit inferred
T4 construct: endogenous in cells; host or cells: mouse splenocytes (from the earlier reading's assay name)
T4 sequence (P47774 25-378): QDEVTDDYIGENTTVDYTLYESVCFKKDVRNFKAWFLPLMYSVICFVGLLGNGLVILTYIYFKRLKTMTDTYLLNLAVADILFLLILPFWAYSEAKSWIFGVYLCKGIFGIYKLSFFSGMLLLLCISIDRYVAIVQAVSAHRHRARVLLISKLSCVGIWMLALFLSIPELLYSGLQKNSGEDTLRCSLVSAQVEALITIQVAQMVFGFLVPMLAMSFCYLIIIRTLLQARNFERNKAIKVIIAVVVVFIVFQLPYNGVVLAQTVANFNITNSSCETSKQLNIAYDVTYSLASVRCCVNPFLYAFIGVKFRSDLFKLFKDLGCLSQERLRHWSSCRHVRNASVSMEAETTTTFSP

[2] = Plasma concentrations at trough after s.c. q.d. dosing; format: in vivo; settings: Balb/c, mouse, subcutaneous, 24 hours post final dose (day 5), mice
Method: as §1

IC50 (mCXCR2; read-out: IC50 on mouse CXCR2, in vitro inhibition of chemotaxis): 0.02 µM
IC90 (mCXCR2; read-out: IC90 for CXCR2 inhibition): 0.145 µg/mL (≈ 0.33 µM)
IC50 (mCCR1): > 10 µM
A2 for chemotaxis of mCCR4-transfected BaF3 cells to mCCL22 in serum (mCCR4): >10,000
IC50 (mCCR7): 6 µM
concentration at 24 h ([2]; 30 mg/kg s.c. q.d. in 1% HPMC): 267 ± 18 ng/mL
concentration at 24 h ([2]; 60 mg/kg s.c. q.d. in 1% HPMC): 323 ± 20 ng/mL
concentration at 24 h ([2]; 90 mg/kg s.c. q.d. in 1% HPMC): 973 ± 19 ng/mL
SMILES: CCC(C)(C)[C@@H](Nc1c(Nc2c(F)ccc3c2C(=O)N[C@H]3C)c(=O)c1=O)c1ccc(C)o1 [Compound 1.136]
IL-36α-mediated epidermal thickness ([1]; H&E ear sections after 4 daily IL-36α treatments, Compound 1.136 90 mg/kg/day s.c., anti-IL17RA 200 μg/mouse/day IP, 90 mg/kg/day): significantly reduced IL-36α-mediated epidermal thickness; also recorded: substantially reduces epidermal thickness
Stratum corneum and leukocyte infiltration in histology ([1]; H&E sections after 4 days of treatment, Compound 1.136 90 mg/kg daily): the stratum corneum remained intact and leukocyte infiltration was reduced
Histology of IL-36α-injected ears: dermal, epidermal and overall skin thickness ([1]; H&E sections after 4 days of treatment, Compound 1.136 90 mg/kg daily, 90 mg/kg): reduced IL-36α-induced dermal, epidermal and overall skin thickness; also recorded: substantially improves histology of IL-36α-injected ears
